GPR84 agonist activities and EC50 data for 40 compounds are collected here from patent US20180237399A1, “COMPOUNDS HAVING AGONISTIC EFFECT AGAINST GPR84, PREPARATION METHOD FOR COMPOUNDS AND USE OF COMPOUNDS” (SHANGHAI INSTITUTE OF MATERIA MEDICA, CHINESE ACADEMY OF …, priority 2015, published 2018).

SMILES strings stand for the structures.

The first test addresses T1, GPR84 (Homo sapiens, UniProt Q9NQS5).
Test: not given
The note with it: in words; cited from earlier work.
Target sequence in this assay (Q9NQS5 whole entry, species assumed): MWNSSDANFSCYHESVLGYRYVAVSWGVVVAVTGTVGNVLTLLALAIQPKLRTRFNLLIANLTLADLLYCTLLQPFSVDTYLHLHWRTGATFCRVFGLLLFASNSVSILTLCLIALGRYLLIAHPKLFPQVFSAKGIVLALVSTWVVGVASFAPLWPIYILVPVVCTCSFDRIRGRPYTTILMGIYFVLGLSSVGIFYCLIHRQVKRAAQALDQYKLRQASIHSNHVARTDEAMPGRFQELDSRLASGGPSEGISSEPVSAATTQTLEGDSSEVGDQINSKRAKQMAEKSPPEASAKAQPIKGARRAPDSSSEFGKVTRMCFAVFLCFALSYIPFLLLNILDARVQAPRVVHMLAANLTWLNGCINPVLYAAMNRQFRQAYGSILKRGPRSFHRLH
Regarding `CCCCCCCC(O)CC(=O)O` (stereo not shown) [3-OH—C10], the GPR84 agonist activities result is recorded as “some GPR84 agonist activities”.
On to `CCCCCCCCCCC(O)C(=O)O` (stereo not shown) [2-OH—C12], for which the GPR84 agonist activities result is recorded as “some GPR84 agonist activities”.
In the case of `CCCCCCCCC(O)C(=O)O` (stereo not shown) [2-OH—C10], the GPR84 agonist activities result is recorded as “some GPR84 agonist activities”.
Regarding `CCCCCCCCCC(O)CC(=O)O` (stereo not shown) [3-OH—C12], the GPR84 agonist activities result is given as “some GPR84 agonist activities”.

The target in the next test is T1, GPR84.
Test: not given
The note with it: CHO-GPR84 cells, cAMP assay; read-out: potencies (GPR84 agonists); cited from earlier work.
Target sequence in this assay (Q9NQS5 whole entry, species assumed): as above
Turning to `CCCCCCCCCCCC(=O)O` [lauric acid], the EC50 was 9000 nM.

A further test concerns the target T1, GPR84. Put plainly: Detection of cytoplasmic calcium ion concentration with Fluo-4 fluorescent dye tracer assay (GPR84 agonist activity). It is filed as cell-based. Also noted: expressed in transfected cells; host or cells: HEK293. The note with it: HEK293 cell line transfected with GPR84 and G16; Fluo-4 calcium fluorescence. The method, then:
Detection of Cytoplasmic Calcium Ion Concentration with Fluo-4 Fluorescent Dye Tracer Assay
The GPR84 agonist activity of the compounds of the invention was tested.
The human GPR84 cell line was obtained by transfecting a plasmid encoding the GPR84 and G16 proteins in the HEK293 cell line. The fluorescent dye Fluo-4 AM was purchased from Invitrogen.
Intracellular Ca^2+ ion is a very important second messenger of G protein-coupled receptor signaling pathway. […] Fluo-4 is a Ca^2+ ion-specific fluorescent probe that binds quantitatively to Ca^2+ ions and emits fluorescence. Therefore, fluorescence assay was used to detect the agonistic activity of compounds in 96-well or 384-well flat bottom microplates. The GPR84 cells were incubated with the Fluo-4 fluorescent dye and added with different concentrations of compounds for stimulation. The changes in the intracellular calcium concentration were detected by the fluorescence intensity of dyes.
• 1. […] The pH of the solution was adjusted to 7.4 with hydrochloric acid or NaOH. The solution was filtered, and stored at 4° C. for one month. • 2. Preparation of Ca^2+ buffer: Firstly, a 560 mM D-glucose (100×) stock solution and a 250 mM Sulfinpyrazone (1000×) stock solution were prepared. Then, to 100 mL of HBSS, was added BSA (0.5 g), 560 mM D-glucose stock solution (1 mL) and 250 mM Sulfinpyrazone (100 μL). […] The Ca^2+ buffer was mixed and used as freshly prepared. • 3. Preparation of dyes solution: Firstly, a stock solution of 3% Cremophor EL (100×) in PBS and a stock solution of 2 mM Fluo-4 (1000×) in DMSO was prepared. Secondly, one milliliter of dye solution was prepared by mixing 1 μL of 2 mM Fluo-4 AM with 10 μL of 3% Cremophor EL and diluting with 1 mL of Ca^2+ buffer and mixed. • 4. The GPR84 cells were cultured in a 96-well plate at a starting density of 4×10^4 cells. The cells were continually cultured for more than 24 hours so that the cell density was 80-90% for detection. • 5. The culture fluid was removed from the cells to be tested. The cells were added freshly prepared dyes and incubated in a 37-degree incubator for 40 minutes to 50 minutes. • 6. Preparation of […] solution: Compounds are dissolved and diluted to 3-fold the final working concentration with freshly prepared Ca^2+ buffer. If compounds are dissolved in DMSO, the final DMSO concentration should not exceed 1%. • 7. After the incubation completed, the dye was removed. The cells were washed with Ca^2+ buffer and then incubated with an additional 50 μL of Ca^2+ buffer for 5 to 10 minutes. • 8. The cells were stimulated with 25 μL/well of Ca^2′ buffer containing different concentrations of the compound. The plate was read by using the FlexStation III Multi-Mode Microplate Reader. The changes in the intracellular calcium concentration were detected by the fluorescence intensity of dyes.
Target sequence in this assay (Q9NQS5 whole entry): as the sequence (Q9NQS5 whole entry, species assumed) above
As to `O=c1cc(O)nc(SCCc2ccc(F)cc2)[nH]1` [LY266-a], the EC50 worked out at 2940 nM.
The same measure, in the same setting: next, `CCCCCCCCc1cc(=O)[nH]c(=S)[nH]1` [LY240]: 340 nM; `Oc1cc(O)nc(SCCc2ccccc2)n1` [LY248]: 3860 nM.
On to `C#CCCCSc1nc(O)cc(O)n1` [LY210], for which the EC50 amounted to 21600 nM.
Still for that read-out and setting: next, `CCC#CCCSc1nc(O)cc(O)n1` [LY224-a]: 653 nM.
`CCCCCCCC(C)c1nc(O)cc(O)n1` (stereo not shown) [LY238-c]: the EC50 is 299 nM.
Same read-out and setting: next, `CC(C)CCCc1nc(O)cc(O)n1` [LY196b]: 2100 nM; `CCCCCCCCCCCCCCSc1nc(O)cc(O)n1` [LY340-14]: 25700 nM; `CCCCCCCCCCCCCCCCSc1nc(O)cc(O)n1` [LY368-16]: 11300 nM.
Take `CCCCCCCc1cc(O)cc(O)n1` [LY209]: the EC50 was determined as 1.25 nM.
`CCCCc1ccc(-c2cc(O)cc(O)n2)cc1` [LY243]: the EC50 worked out at 6.1 nM.
As to `Oc1cc(O)nc(SCC2CCC2)n1` [LY212], the EC50 is 43400 nM.
For the compound `CCCCCCCCCc1cc(O)cc(O)c1` [LY236], the EC50 came to 435 nM.
With `Oc1cc(O)nc(SCCCCc2ccccc2)n1` [LY276], the EC50 is 435 nM.
Regarding `CCCCCCCCCCCCSc1nc(O)cc(O)n1` [LY312-12], the EC50 came out at 1160 nM.
Turning to `CCCCCCCCc1nc(O)cc(O)n1` [LY224-b], the EC50 came out at 11.4 nM.
With `CC/C=C\CCSc1nc(O)cc(O)n1` [LY226], the EC50 is 924 nM.
On to `Oc1cc(O)nc(SCCc2ccccc2F)n1` [LY266-b], for which the EC50 was 1990 nM.
For `CCc1ccc(CSc2nc(O)cc(O)n2)cc1` [LY262-b], the EC50 turned out to be 271 nM.
For `CC(C)CCCSc1nc(O)cc(O)n1` [LY228-6b], the EC50 is 641 nM.
With `CCCCCSc1nc(O)cc(O)n1` [LY214-5], the EC50 amounted to 2480 nM.
With `CCCCCCCCc1cc(O)cc(O)n1` [LY223], the EC50 worked out at 1.34 nM.
Turning to `CCCCCCCCCc1cc(O)cc(=O)o1` [LY238-d], the EC50 amounted to 3.51 nM.
For the compound `CCc1ccc(CCc2nc(O)cc(O)n2)cc1` [LY244], the EC50 is 88.1 nM.
Turning to `CCCCCCCCCc1nc(O)cc(O)n1` [LY238], the EC50 was 48.7 nM.
`CCCCCCCCNc1nc(O)cc(O)n1` [LY239]: the EC50 was 6.14 nM.
In the case of `CCCCCCCCc1cc(=O)[nH]c(=O)[nH]1` [LY224-c], the EC50 is 811 nM.
`CCCCCCCSc1nc(O)cc(O)n1` [LY242-7]: the EC50 is 231 nM.
For the compound `CCCCCCCc1nc(O)cc(O)n1` [LY210-b], the EC50 came out at 12.7 nM.
In the case of `Oc1cc(O)nc(SCCCc2ccccc2)n1` [LY262-a], the EC50 is 573 nM.
For `CCCCCc1nc(O)cc(O)n1` [LY182], the EC50 came to 3670 nM.
For `CCCCCCCCSc1nc(O)cc(O)n1` [LY256-8], the EC50 was found to be 264 nM.
Turning to `Oc1cc(O)nc(SCCc2cccc(F)c2)n1` [LY266-c], the EC50 worked out at 2590 nM.
On the same count and under the same terms, next, `Oc1cc(O)nc(SCCCCCc2ccccc2)n1` [LY290-a]: 1080 nM; `CCCCCCCCc1nc(O)nc(O)n1` [LY225-b]: 1020 nM.
